Reference: US20250304623A1, “PEPTIDES FOR INTRACELLULAR DELIVERY” (UNIVERSIDADE DE SANTIAGO DE COMPOSTELA, priority 2022, published 2025)
Starred links: 1 amine or outer side, 2 acyl side, 3 side chain; linkers in the order of their positions; H or OH if unused. Residues, ends and D or L forms follow the SMILES beside them. Groups on a side chain read outwards from the residue. *: point of attachment. Glutaryl = O=C(CCCC(=O)[*:2])[*:1]; NHNH2 = NN*

Tests used:
Assay type in all cases: cell-based
[1] = tested on: HepG2 cells expressing EGFP; experiment: EGFP-targeting siRNA delivery (GFP silencing vs siMOCK), HepG2
Protocol: (§1) To generate an EGFP expressing HeLa cell line, HeLa cells were transfected with EGFP pDNA (pEGFP-C1, Clontech) and stable transfectants were selected with 400 μg/mL of G-418 (Millipore). Green clones were selected by epifluorescence microscopy and tested for EGFP expression stability through several passages. […] All other EGFP-expressing cell lines were obtained in a similar way from parent non-EGFP-expressing cell lines.
(§2) Cells expressing EGFP were seeded in a 96 well plate the day before the experiment at a concentration of 50,000 cell/mL (100 μL/w) in DMEM+10% FBS+1% Gln-Abt. For robotic library screening, the delivery of an EGFP-targeting siRNA (EGFP: enhanced green fluorescent protein, Ambion® Silencer® GFP Positive Control siRNA (siGFP) (AM4626)) in six different cell lines expressing EGFP was performed. […] The mixture was shaken for 30 min at room temperature (rt) before the addition to the cells. The cell medium was aspirated, and cells were washed twice with PBS. Finally, 50 μL of the solution of siRNA/amphiphile complexes were added to the cells and incubated for 4 h. After transfection, the medium was replaced by 100 μL of fresh DMEM supplemented with 10% FBS. The fluorescence knockdown was quantified after 72 h in a plate reader, by comparison with cells transfected with a non-targeting siRNA control (siMOCK, Silencer™ Negative Control No. 1 siRNA (siMOCK) (AM4611)). EGFP knockdown was compared with Lipofectamine® RNAiMAX silencing efficiency (30-60% depending on cell line, defined with a numeric value in the below tables). All experiments were done in triplicate.
(§3) Tables 1-7: RLuc (pDNA) or EGFP (mRNA) expression levels were normalized to Lipofectamine reagents (value=1) and expressed as fold-times signal increase. In the case of siRNA, the siRNA treated cells fluorescence was compared with siMOCK control fluorescence, while Cas9-RNP mediated knockout was measured against the fluorescence of untreated cells. In both siRNA and Cas9-RNP, values are expressed as % fluorescence reduction. Amphiphile concentration was 5 μM in all cases. All experiments were performed in triplicate.
(§4) Tables 20-25 show the mean (triplicates) percentage of GFP-silencing, accounted by fluorescence intensity decrease relative to a non-targeting siRNA (siMOCK) control, measured after the transfection of siRNA by different amphiphiles at different concentrations in a variety of cell lines. Background values, accounted by untreated control cells, were subtracted for processing.

[2] = tested on: Hek293 cells expressing EGFP; experiment: EGFP-targeting siRNA delivery (GFP silencing vs siMOCK), Hek293
Protocol: as §1, §2, §3, §4

[3] = tested on: HepG2 cells expressing EGFP; experiment: Cas9-RNP delivery against EGFP (gene editing, plate reader), HepG2
Protocol: as §1
(§5) Cells expressing EGFP were seeded in a 96 well plate the day before the experiment at a concentration of 50,000 cell/mL (100 μL/w) in DMEM+10% FBS+1% Gln-Abt. For robotic library screening, the delivery of Cas9-RNP against EGFP (RNP designed to knock-out the gene encoding for the enhanced green fluorescent protein (EGFP)) was performed. For RNP assembly, 9.2 μL of crRNA and 9.2 μL of tracrRNA were mixed in 211.6 μL of Nuclease-Free Duplex Buffer (IDT), incubated for 5 min at 95° C. and slowly cooled at rt (see I. Lostalé-Seijo, et al. Peptide/Cas9 nanostructures for ribonucleoprotein cell membrane transport and gene edition, Chem. Sci., 2017). Cas9 protein was dissolved in DMEM at a final concentration of 4 μM and equal volumes of the RNA complex and Cas9 were mixed and incubated for 5 min at rt. 75 μL of the corresponding amphiphile concentrations were added to 5 μL of RNP at 2 μM. The mixture was shaken for 30 min at room temperature before the addition to the cells. The cell medium was aspirated, and cells were washed twice with PBS. Cells were covered with 30 μL of DMEM and 20 μL of the RNP/amphiphile complexes were added to the cells (final peptide concentrations=2.5, 5 and 10 μM; final Cas9-RNP concentration=50 nM) and incubated for 4 h. After the incubation, the medium was replaced by 100 μL of fresh DMEM supplemented with 10% FBS. The total EGFP fluorescence was quantified after 72 h in a plate reader (FIG. 2, Table 1 (right) and Table 6). All experiments were done in triplicate. […]
(§6) Tables 26-31 show the mean (triplicates) percentage of gene editing, accounted by GFP fluorescence intensity decrease (% of reduction), measured after the transfection of Cas9-RNP by different amphiphiles at different concentrations in a variety of cell lines. Background values, accounted by untreated control cells, were subtracted for processing.

[4] = tested on: ARPE19 cells expressing EGFP; experiment: EGFP-targeting siRNA delivery (GFP silencing vs siMOCK), ARPE19
Protocol: as §1, §2, §3, §4

[5] = tested on: ARPE19 cells expressing EGFP; experiment: Cas9-RNP delivery against EGFP (gene editing, plate reader), ARPE19
Protocol: as §1, §5, §6

## CC(=O)N[C@@H](CCCNC(=N)N)C(=O)N[C@@H](CCCCNC(=O)CCCC(=O)NN)C(=O)N[C@@H](Cc1c[nH]cn1)C(=O)N[C@@H](CCCNC(=N)N)C(=O)N[C@@H](CCCCNC(=O)CCCC(=O)NN)C(=O)N[C@@H](CCCCNC(=O)CCCC(=O)NN)C(=O)N[C@@H](Cc1c[nH]cn1)C(N)=O [7.3(L-H), Ac-RK*HRK*K*H-NH2] (Ac-RK([Glutaryl-NHNH2])HRK([Glutaryl-NHNH2])K([Glutaryl-NHNH2])H-NH2)
[1]; Myristoleyl, 15 μM
  percentage of GFP-silencing relative to siMOCK: −13%
[1]; Oleyl, 10 μM
  percentage of GFP-silencing relative to siMOCK: −9%
[1]; Palmitoleyl, 15 μM
  percentage of GFP-silencing relative to siMOCK: 10%
[1]; Petroselinyl, 15 μM
  percentage of GFP-silencing relative to siMOCK: 1%
[2]; Dodecanal, 15 μM
  percentage of GFP-silencing relative to siMOCK: 14%
[2]; Myristoleyl, 5 μM
  percentage of GFP-silencing relative to siMOCK: −3%
[2]; Palmitoleyl, 10 μM
  percentage of GFP-silencing relative to siMOCK: 6%
[3]; Dodecanal, 10 μM
  percentage of gene editing, GFP fluorescence intensity decrease (% of reduction): −28%
[3]; Dodecanal, 15 μM
  percentage of gene editing, GFP fluorescence intensity decrease (% of reduction): −28%
[3]; Myristoleyl, 5 μM
  percentage of gene editing, GFP fluorescence intensity decrease (% of reduction): −16%
[3]; Myristoleyl, 10 μM
  percentage of gene editing, GFP fluorescence intensity decrease (% of reduction): −25%
[3]; Myristoleyl, 15 μM
  percentage of gene editing, GFP fluorescence intensity decrease (% of reduction): −19%
[3]; Oleyl, 5 μM
  percentage of gene editing, GFP fluorescence intensity decrease (% of reduction): −17%
[3]; Oleyl, 10 μM
  percentage of gene editing, GFP fluorescence intensity decrease (% of reduction): −13%
[3]; Oleyl, 15 μM
  percentage of gene editing, GFP fluorescence intensity decrease (% of reduction): −12%
[3]; Palmitoleyl, 5 μM
  percentage of gene editing, GFP fluorescence intensity decrease (% of reduction): −23%
[3]; Palmitoleyl, 10 μM
  percentage of gene editing, GFP fluorescence intensity decrease (% of reduction): −12%
[3]; Palmitoleyl, 15 μM
  percentage of gene editing, GFP fluorescence intensity decrease (% of reduction): −25%
[3]; Petroselinyl, 10 μM
  percentage of gene editing, GFP fluorescence intensity decrease (% of reduction): −20%
[4]; Dodecanal, 5 μM
  percentage of GFP-silencing relative to siMOCK: 10%
[4]; Myristoleyl, 5 μM
  percentage of GFP-silencing relative to siMOCK: 45%
[4]; Myristoleyl, 10 μM
  percentage of GFP-silencing relative to siMOCK: 45%
[4]; Oleyl, 5 μM
  percentage of GFP-silencing relative to siMOCK: 15%
[4]; Oleyl, 10 μM
  percentage of GFP-silencing relative to siMOCK: 47%
[4]; Oleyl, 15 μM
  percentage of GFP-silencing relative to siMOCK: 46%
[4]; Palmitoleyl, 5 μM
  percentage of GFP-silencing relative to siMOCK: 49%
[4]; Palmitoleyl, 10 μM
  percentage of GFP-silencing relative to siMOCK: 65%
[4]; Palmitoleyl, 15 μM
  percentage of GFP-silencing relative to siMOCK: 40%
[4]; Petroselinyl, 5 μM
  percentage of GFP-silencing relative to siMOCK: 5%
[5]; Myristoleyl, 5 μM
  percentage of gene editing, GFP fluorescence intensity decrease (% of reduction): 19%
[5]; Myristoleyl, 15 μM
  percentage of gene editing, GFP fluorescence intensity decrease (% of reduction): 12%
[5]; Oleyl, 5 μM
  percentage of gene editing, GFP fluorescence intensity decrease (% of reduction): 1%
[5]; Oleyl, 10 μM
  percentage of gene editing, GFP fluorescence intensity decrease (% of reduction): 6%
[5]; Oleyl, 15 μM
  percentage of gene editing, GFP fluorescence intensity decrease (% of reduction): 15%
[5]; Palmitoleyl, 5 μM
  percentage of gene editing, GFP fluorescence intensity decrease (% of reduction): 37%
[5]; Palmitoleyl, 10 μM
  percentage of gene editing, GFP fluorescence intensity decrease (% of reduction): 31%
[5]; Petroselinyl, 5 μM
  percentage of gene editing, GFP fluorescence intensity decrease (% of reduction): 18%
